Results as given in US20260137689A1, “INTEGRATION OF MOLECULAR MECHANISMS IN THE STRIATUM AS A COMBINATION DRUG STRATEGY FOR THE TREATMENT OF PSYCHIATRIC AND NEUROLOGICAL DISORDERS IN WHICH ANHEDONIA OR MOTIVATION-RELATED DYSFUNCTION EXISTS” (Alto Neuroscience, Inc., priority 2021, published 2026).
Read-outs that look alike come from different tables or passages of the source.

Tests used:
[1] = system: release of gamma-aminobutyric acid (GABA); conditions: cited from earlier work
D2 receptor = conditions: striatal slices from reserpinized rats (ref. 33); cited from earlier work
C57/BL6 mice = assay: Forced swim test; type: in vivo; conditions: FIG. 2 doses: imipramine 20 mg/kg, istradefylline 0.1 mg/kg, varenicline 0.17 mg/kg, alone or combined
Protocol: FIG. 2 is a bar graph of the time during a forced swim test after treatment with saline, 20 mg/kg for imipramine, 0.1 mg/kg for istradefylline, 0.17 mg/kg for varenicline, and a combination of 0.1 mg/kg for istradefylline and 0.17 mg/kg for varenicline.
Without being bound by a particular theory, the inventors theorized that an increase in dopamine release, when coupled with A2A antagonism, could result in an antidepressant response-essentially aiming to replace direct D2 agonism with a drug that leads to its release and to an increase in D2/D3 receptor availability. […] Of note, however, varenicline has been approved in humans for smoking cessation, and initially carried a black box for increased risk for development of depression, a seemingly opposite outcome to our goal. To determine whether such a combination is viable, we conducted forced swim tests in C57/BL6 mice. […] One such example is 5 mg-40 mg of istradefylline together with 0.25-3 mg of varenicline.
To determine whether such a combination is viable, forced swim tests in C57/BL6 mice were conducted. The forced-swim test is used to assess depressive-like behavior in mice. The time spent immobile is considered a measure of depressive-like behavior. Immobility scores for each mouse were determined by manual scoring.

dopamine release [2] = conditions: rodents (ref. 43); cited from earlier work
dopamine release [3] = conditions: humans (ref. 44); cited from earlier work
D2/D3 receptor = conditions: rodents (refs. 45, 46); cited from earlier work
Parkinson's models = Parkinson's models (ref. 47); cited from earlier work

Structure (SMILES): NC(C(=O)O)c1cc(O)ccc1Cl (racemic) [CHPG, (RS)-2-chloro-5-hydroxyphenylglycine]
- effect on GABA release by itself ([1]; alone (ref. 38)): ineffective by itself
- effect on quinpirole-induced change of neuronal activity (GABA release) ([1]; with the D2/D3 agonist quinpirole (ref. 38)): able to counteract the effects

Structure (SMILES): CCNC(=O)[C@H]1O[C@@H](n2cnc3c(N)nc(NCCc4ccc(CCC(=O)O)cc4)nc32)[C@H](O)[C@@H]1O [CGS 21680]
- effect on affinity of the D2 receptor for the D2/D3 agonist quinpirole (D2 receptor): decreased the affinity

Structure (SMILES): Nc1nc(NCCc2ccc(O)cc2)nc2nc(-c3ccco3)nn12 [ZM 241385]
- effect on affinity of the D2 receptor for the D2/D3 agonist quinpirole (D2 receptor): increased the affinity

Structure (SMILES): CN(C)CCCN1c2ccccc2CCc2ccccc21 [imipramine]
- antidepressant response (time spent immobile) in forced swim test (C57/BL6 mice): decrease in immobility

Structure (SMILES): c1cnc2cc3c(cc2n1)[C@@H]1CNC[C@H]3C1 [varenicline]
- antidepressant response (time spent immobile) in forced swim test (C57/BL6 mice): by themselves ineffective
- dopamine release (dopamine release [2]): increase dopamine release
- dopamine release (dopamine release [3]): increase dopamine release
- D2/D3 receptor availability (D2/D3 receptor): increase D2/D3 receptor availability
- motor functioning (Parkinson's models): improve motor functioning
